Experiments:
cGMP PDE5 = target: T1, cGMP PDE5 (Homo sapiens, UniProt O76074); experiment: In vitro PDE inhibitory activity against cGMP PDE5 (IC50); type: biochemical; details: cGMP PDE5 from human corpus cavernosum tissue
T1 construct: The IC50 measurements for cGMP PDE5 were based upon data generated on human corpus cavernosum tissue; from tissue; host or cells: human corpus cavernosum
Text: (§1) The IC50 measurements for cGMP PDE5 were based upon data generated on human corpus cavernosum tissue and the IC50 measurements for rod cGMP PDE6 were based upon data generated on bovine retina tissue and wherein the selectivity ratio for cGMP PDE5 to cGMP PDE6 quoted is based upon IC50 PDE5/IC50 PDE6.

rod cGMP PDE6 = target: T2, rod cGMP PDE6 (Bos taurus, UniProt P11541+P23439); experiment: In vitro PDE inhibitory activity against rod cGMP PDE6 (IC50), used for the PDE5 versus PDE6 selectivity; type: biochemical; details: ratio of IC50 for cGMP PDE5 (human corpus cavernosum) and rod cGMP PDE6 (bovine retina)
T2 construct: the IC50 measurements for rod cGMP PDE6 were based upon data generated on bovine retina tissue; from tissue; host or cells: bovine retina
T2 sequence (P11541 2-856 limits assumed): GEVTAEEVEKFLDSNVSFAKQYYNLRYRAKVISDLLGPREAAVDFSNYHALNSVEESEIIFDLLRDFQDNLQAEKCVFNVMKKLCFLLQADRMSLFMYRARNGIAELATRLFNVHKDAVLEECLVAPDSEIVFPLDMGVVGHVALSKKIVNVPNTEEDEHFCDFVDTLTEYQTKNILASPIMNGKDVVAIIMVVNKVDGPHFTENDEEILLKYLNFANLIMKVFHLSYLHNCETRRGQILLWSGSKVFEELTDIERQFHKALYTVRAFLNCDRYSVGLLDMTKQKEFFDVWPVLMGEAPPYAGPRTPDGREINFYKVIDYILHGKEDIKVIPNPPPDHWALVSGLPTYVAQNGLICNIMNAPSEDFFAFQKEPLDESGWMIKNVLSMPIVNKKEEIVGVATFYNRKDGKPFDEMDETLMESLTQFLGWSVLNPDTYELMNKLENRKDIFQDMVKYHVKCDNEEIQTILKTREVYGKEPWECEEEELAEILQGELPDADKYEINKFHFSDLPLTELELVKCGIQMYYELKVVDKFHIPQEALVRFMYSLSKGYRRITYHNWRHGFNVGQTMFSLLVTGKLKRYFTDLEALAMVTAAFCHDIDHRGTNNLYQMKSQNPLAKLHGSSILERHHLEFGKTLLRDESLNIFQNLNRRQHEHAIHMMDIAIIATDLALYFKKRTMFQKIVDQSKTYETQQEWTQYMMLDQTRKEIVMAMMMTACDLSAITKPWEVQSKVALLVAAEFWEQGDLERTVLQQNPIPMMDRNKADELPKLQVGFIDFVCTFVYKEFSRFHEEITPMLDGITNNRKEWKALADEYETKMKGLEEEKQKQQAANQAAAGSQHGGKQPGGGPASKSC
T2 sequence (P23439 2-850 limits assumed): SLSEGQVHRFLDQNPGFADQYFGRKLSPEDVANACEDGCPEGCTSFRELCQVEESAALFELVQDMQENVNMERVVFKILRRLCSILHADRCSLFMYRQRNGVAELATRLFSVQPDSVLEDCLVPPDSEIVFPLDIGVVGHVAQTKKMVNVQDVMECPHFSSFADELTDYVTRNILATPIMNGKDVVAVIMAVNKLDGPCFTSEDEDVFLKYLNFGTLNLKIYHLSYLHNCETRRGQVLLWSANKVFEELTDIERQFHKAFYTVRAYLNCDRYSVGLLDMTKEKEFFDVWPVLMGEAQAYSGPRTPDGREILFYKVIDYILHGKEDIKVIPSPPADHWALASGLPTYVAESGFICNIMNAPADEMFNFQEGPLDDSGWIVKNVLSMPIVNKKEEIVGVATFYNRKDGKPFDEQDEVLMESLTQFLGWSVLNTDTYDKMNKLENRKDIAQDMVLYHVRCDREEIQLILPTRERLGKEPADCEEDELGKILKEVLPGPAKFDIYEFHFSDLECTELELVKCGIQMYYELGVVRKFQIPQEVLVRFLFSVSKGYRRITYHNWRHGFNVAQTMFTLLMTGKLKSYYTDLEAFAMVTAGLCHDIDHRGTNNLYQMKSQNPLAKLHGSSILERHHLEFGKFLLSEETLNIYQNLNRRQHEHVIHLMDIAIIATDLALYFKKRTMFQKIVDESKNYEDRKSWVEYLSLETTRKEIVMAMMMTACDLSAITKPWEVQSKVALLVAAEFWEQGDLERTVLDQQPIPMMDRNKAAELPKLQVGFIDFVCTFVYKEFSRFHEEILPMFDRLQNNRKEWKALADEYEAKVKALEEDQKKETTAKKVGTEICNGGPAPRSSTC
Text: as §1

SMILES | IC50 (cGMP PDE5) | Selectivity (PDE 5/6) (rod cGMP PDE6)
CCOc1ncc(S(=O)(=O)N2CCN(CC)CC2)cc1-c1nc2c(CC)n(CC(C)C)nc2c(=O)[nH]1 [Example 5] | 1 nM | 
CCOc1ncc(S(=O)(=O)N2CCN(CC)CC2)cc1-c1nc2c(CC)n(CCOC)nc2c(=O)[nH]1 [Example 8, 1-{6-ethoxy-5-[3-ethyl-6,7-dihydro-2-(2-methoxyethyl)-7-oxo-2H-pyrazolo[4,3-d]pyrimidin-5-yl]-3-pyridylsulfonyl}-4-ethylpiperazine] | 1.68 nM | 223.8
CCCCOc1ncc(S(=O)(=O)N2CCN(CC)CC2)cc1-c1nc2c(CC)n(CCN(C)C)nc2c(=O)[nH]1 [Example 17, 5-[2-n-Butoxy-5-(4-ethylpiperazin-1-ylsulphonyl)pryridin-3-yl]-2-dimethylaminoethyl-3-ethyl-2,6-dihydro-7H-pyrazolo[4,3-d]pyrimidin-7-one] | 0.9 nM | 254.1
CCOc1ncc(S(=O)(=O)N2CCN(CC)CC2)cc1-c1nc2c(CC)n(C3CN(C(C)=O)C3)nc2c(=O)[nH]1 [Example 22, 2-(1-Acetylazetidin-3-yl)-5-[2-ethoxy-5-(4-ethylpiperazin-1-ylsulphonyl)pyridin-3-yl]-3-ethyl-2,6-dihydro-7H-pyrazolo[4,3-d]pyrimidin-7-one] | 6.4 nM | 325.3
CCCOc1ncc(S(=O)(=O)N2CCN(CC)CC2)cc1-c1nc2c(CC)n(CCN(C)C(C)=O)nc2c(=O)[nH]1 [Example 24] | 1.52 nM | 134.9
CCCc1c2nc(-c3cc(S(=O)(=O)N4CCN(CC)CC4)cnc3OCC(C)C)[nH]c(=O)c2nn1CCOC [Example 27, 5-[2-isoButoxy-5-(4-ethylpiperazin-1-ylsulphonyl)pyridin-3-yl]-2-(2-methoxyethyl)-3-n-propyl-2,6-dihydro-7H-prazolo[4,3-d]pyrimidin-7-one] | 0.85 nM | 161
CCc1c2nc(-c3cc(S(=O)(=O)N4CCN(C)CC4)cnc3OCCOC)[nH]c(=O)c2nn1CC1CCC1 [Example 53, 2-Cyclobutylmethyl-3-ethyl-5-[2-(2-methoxyethoxy)-5-(4-methylpiperazin-1-ylsulphonyl)pyridin-3-yl]-2,6-dihydro-7H-pyrazolo[4,3-d]pyrimidin-7-one] | 1.09 nM | 
CCCCOc1ncc(S(=O)(=O)N2CCN(CC)CC2)cc1-c1nc2c(CC)n(CC(=O)N(C)C)nc2c(=O)[nH]1 [Example 60, 5-[2-n-Butoxy-5-(4-ethylpiperazin-1-ylsulphonyl)pyridin-3-yl]-2-[2-(dimethylamino)-2-oxoethyl]-3-ethyl-2,6-dihydro-7H-pyrazolo[4,3-d]pyrimidin-7-one] | 0.45 nM | 343.7

Reference: patent US6677335B1, “Pharmaceutically active compounds” (Pfizer Inc, priority 1999, dated 2004)
